Experiments:
Test in all cases: cells
[1] = tested on: IA-LM; type: functional, cell-based, Homo sapiens; settings: Homo sapiens, IA-LM;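 further: cell viability assay measuring growth inhibition of human IA-LM cells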
Description: SANGER: Inhibition of human IA-LM cell growth in a cell viability assay.

[2] = tested on: NCI-H1563; type: functional, cell-based, Homo sapiens; settings: Homo sapiens, NCI-H1563;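 further: growth inhibition of human NCI-H1563 cells, read out with a cell viability assay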
Description: SANGER: Inhibition of human NCI-H1563 cell growth in a cell viability assay.

[3] = tested on: Ca-Ski; type: functional, cell-based; settings: Homo sapiens;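 further: cell viability assay measuring inhibition of Ca-Ski cell growth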
Description: SANGER: Inhibition of human Ca-Ski cell growth in a cell viability assay.

[4] = tested on: SK-NEP-1; type: functional, cell-based; settings: Homo sapiens;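 further: growth inhibition of human SK-NEP-1 cells, read out by a cell viability assay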
Description: SANGER: Inhibition of human SK-NEP-1 cell growth in a cell viability assay.

[5] = tested on: SW1783; type: functional, cell-based; settings: Homo sapiens;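 further: cell growth inhibition measured with a viability assay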
Description: SANGER: Inhibition of human SW1783 cell growth in a cell viability assay.

[6] = tested on: CTB-1; type: functional, cell-based; settings: Homo sapiens
Description: SANGER: Inhibition of human CTB-1 cell growth in a cell viability assay.

[7] = tested on: SK-N-FI; type: functional, cell-based, Homo sapiens; settings: Homo sapiens, SK-N-FI;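 further: cell viability assay measuring growth inhibition of human SK-N-FI cells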
Description: SANGER: Inhibition of human SK-N-FI cell growth in a cell viability assay.

[8] = tested on: NCI-H2122; type: functional, cell-based, Homo sapiens; settings: Homo sapiens, NCI-H2122;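 further: growth inhibition of the cells, read out with a cell viability assay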
Description: SANGER: Inhibition of human NCI-H2122 cell growth in a cell viability assay.

[9] = tested on: D-263MG; type: functional, cell-based, Homo sapiens; settings: Homo sapiens, D-263MG
Description: SANGER: Inhibition of human D-263MG cell growth in a cell viability assay.

[10] = tested on: NB13; type: functional, cell-based, Homo sapiens; settings: Homo sapiens, NB13;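 further: cell viability readout measuring growth inhibition of human NB13 cells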
Description: SANGER: Inhibition of human NB13 cell growth in a cell viability assay.

[11] = tested on: NEC8; type: functional, cell-based, Homo sapiens; settings: Homo sapiens, NEC8;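 further: growth inhibition of human NEC8 cells, read out by a cell viability assay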
Description: SANGER: Inhibition of human NEC8 cell growth in a cell viability assay.

[12] = tested on: NCI-H2087; type: functional, cell-based, Homo sapiens; settings: Homo sapiens, NCI-H2087;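 further: growth inhibition determined with a cell viability readout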
Description: SANGER: Inhibition of human NCI-H2087 cell growth in a cell viability assay.

[13] = tested on: HT; type: functional, cell-based; settings: Homo sapiens
Description: SANGER: Inhibition of human HT cell growth in a cell viability assay.

[14] = tested on: BXPC-3; type: functional, cell-based, Homo sapiens; settings: Homo sapiens, BXPC-3;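 further: growth inhibition of human BxPC-3 cells, read out by a cell viability assay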
Description: SANGER: Inhibition of human BxPC-3 cell growth in a cell viability assay.

[15] = tested on: G-401; type: functional, cell-based, Homo sapiens; settings: Homo sapiens, G-401
Description: SANGER: Inhibition of human G-401 cell growth in a cell viability assay.

[16] = tested on: SW626; type: functional, cell-based, Homo sapiens; settings: Homo sapiens, SW626;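 further: growth inhibition of SW626 cells, measured with a cell viability assay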
Description: SANGER: Inhibition of human SW626 cell growth in a cell viability assay.

[17] = tested on: NB12; type: functional, cell-based, Homo sapiens; settings: Homo sapiens, NB12;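 further: growth inhibition of human NB12 cells, read out by a cell viability assay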
Description: SANGER: Inhibition of human NB12 cell growth in a cell viability assay.

[18] = tested on: KYSE-520 cell line; type: functional, cell-based, Homo sapiens; settings: Homo sapiens, KYSE-520;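 further: growth inhibition of human KYSE-520 cells, read out with a viability assay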
Description: SANGER: Inhibition of human KYSE-520 cell growth in a cell viability assay.

[19] = tested on: ETK-1; type: functional, cell-based, Homo sapiens; settings: Homo sapiens, ETK-1;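 further: growth inhibition of human ETK-1 cells, read out with a cell viability assay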
Description: SANGER: Inhibition of human ETK-1 cell growth in a cell viability assay.

[20] = tested on: YKG-1; type: functional, cell-based, Homo sapiens; settings: Homo sapiens, YKG-1;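 further: cell growth inhibition, read out with a viability assay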
Description: SANGER: Inhibition of human YKG-1 cell growth in a cell viability assay.

[21] = tested on: CTV-1; type: functional, cell-based; settings: Homo sapiens;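 further: growth inhibition of the cell line, read out with a cell viability assay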
Description: SANGER: Inhibition of human CTV-1 cell growth in a cell viability assay.

[22] = tested on: NB69; type: functional, cell-based, Homo sapiens; settings: Homo sapiens, NB69;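 further: growth inhibition of NB69 cells, determined by a cell viability assay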
Description: SANGER: Inhibition of human NB69 cell growth in a cell viability assay.

[23] = tested on: NCI-H1838; type: functional, cell-based, Homo sapiens; settings: Homo sapiens, NCI-H1838;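 further: growth inhibition of NCI-H1838 cells, determined with a cell viability readout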
Description: SANGER: Inhibition of human NCI-H1838 cell growth in a cell viability assay.

[24] = tested on: A101D; type: functional, cell-based, Homo sapiens; settings: Homo sapiens, A101D;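 further: growth inhibition of the cell line, measured with a viability assay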
Description: SANGER: Inhibition of human A101D cell growth in a cell viability assay.

[25] = tested on: LAMA-84; type: functional, cell-based; settings: Homo sapiens;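 further: growth inhibition of LAMA-84 cells, read out with a cell viability assay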
Description: SANGER: Inhibition of human LAMA-84 cell growth in a cell viability assay.

[26] = tested on: NCI-H1395; type: functional, cell-based, Homo sapiens; settings: Homo sapiens, NCI-H1395;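 further: cell viability assay read-out quantifying reduced proliferation of human NCI-H1395 cells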
Description: SANGER: Inhibition of human NCI-H1395 cell growth in a cell viability assay.

[27] = tested on: MG-63; type: functional, cell-based, Homo sapiens; settings: Homo sapiens, MG-63;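 further: growth inhibition of human MG-63 cells, read out with a cell viability assay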
Description: SANGER: Inhibition of human MG-63 cell growth in a cell viability assay.

[28] = tested on: SW948; type: functional, cell-based, Homo sapiens; settings: Homo sapiens, SW948;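 further: growth inhibition of SW948 cells, read out with a cell viability assay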
Description: SANGER: Inhibition of human SW948 cell growth in a cell viability assay.

[29] = tested on: OS-RC-2; type: functional, cell-based, Homo sapiens; settings: Homo sapiens, OS-RC-2;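 further: growth inhibition of human OS-RC-2 cells, measured by a cell viability assay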
Description: SANGER: Inhibition of human OS-RC-2 cell growth in a cell viability assay.

[30] = tested on: DMS-114; type: functional, cell-based, Homo sapiens; settings: Homo sapiens, DMS-114
[31] = tested on: MCF7; type: functional, cell-based, Homo sapiens; settings: Homo sapiens, MCF7;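 further: growth inhibition of human MCF7 cells, read out with a cell viability assay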
Description: SANGER: Inhibition of human MCF7 cell growth in a cell viability assay.

[32] = tested on: KALS-1; type: functional, cell-based, Homo sapiens; settings: Homo sapiens, KALS-1;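 further: growth inhibition of KALS-1 cells, determined with a cell viability assay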
Description: SANGER: Inhibition of human KALS-1 cell growth in a cell viability assay.

[33] = tested on: SW 962; type: functional, cell-based, Homo sapiens; settings: Homo sapiens, SW 962;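 further: growth inhibition of human SW962 cells, read out by a cell viability assay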
Description: SANGER: Inhibition of human SW962 cell growth in a cell viability assay.

[34] = tested on: HCC1806; type: functional, cell-based, Homo sapiens; settings: Homo sapiens, HCC1806;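 further: growth inhibition of the cancer cell line, determined with a cell viability assay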
Description: SANGER: Inhibition of human HCC1806 cell growth in a cell viability assay.

[35] = tested on: SAS; type: functional, cell-based, Homo sapiens; settings: Homo sapiens, SAS;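 further: growth inhibition of SAS cells, read out with a cell viability assay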
Description: SANGER: Inhibition of human SAS cell growth in a cell viability assay.

[36] = tested on: GCT; type: functional, cell-based, Homo sapiens; settings: Homo sapiens, GCT;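 further: GCT cell line proliferation inhibition, read out with a cell viability assay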
Description: SANGER: Inhibition of human GCT cell growth in a cell viability assay.

[37] = tested on: SW684; type: functional, cell-based, Homo sapiens; settings: Homo sapiens, SW684;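 further: growth inhibition of human SW684 cells, measured by a cell viability assay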
Description: SANGER: Inhibition of human SW684 cell growth in a cell viability assay.

[38] = tested on: LB2241-RCC; type: functional, cell-based, Homo sapiens; settings: Homo sapiens, LB2241-RCC;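 further: cell viability assay measuring how strongly the cultured human renal carcinoma line is prevented from growing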
Description: SANGER: Inhibition of human LB2241-RCC cell growth in a cell viability assay.

[39] = tested on: LB373-MEL-D; type: functional, cell-based, Homo sapiens; settings: Homo sapiens, LB373-MEL-D;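 further: growth inhibition of the cell line, read out in a cell viability assay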
Description: SANGER: Inhibition of human LB373-MEL-D cell growth in a cell viability assay.

[40] = tested on: BHY; type: functional, cell-based, Homo sapiens; settings: Homo sapiens, BHY;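 further: cell growth inhibition read out by a viability assay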
Description: SANGER: Inhibition of human BHY cell growth in a cell viability assay.

[41] = tested on: UACC-893; type: functional, cell-based, Homo sapiens; settings: Homo sapiens, UACC-893
Description: SANGER: Inhibition of human UACC-893 cell growth in a cell viability assay.

[42] = tested on: SK-MEL-24; type: functional, cell-based; settings: Homo sapiens;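 further: growth inhibition read out by a cell viability assay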
Description: SANGER: Inhibition of human SK-MEL-24 cell growth in a cell viability assay.

[43] = tested on: KP-4; type: functional, cell-based, Homo sapiens; settings: Homo sapiens, KP-4; read-out: IC50;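 further: human KP-4 cells, with growth inhibition read out through a cell viability assay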
Description: SANGER: Inhibition of human KP-4 cell growth in a cell viability assay.

[44] = tested on: ALL-PO; type: functional, cell-based; settings: Homo sapiens;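 further: growth inhibition of ALL-PO cells, read out by a cell viability assay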
Description: SANGER: Inhibition of human ALL-PO cell growth in a cell viability assay.

[45] = tested on: SK-MEL-28; type: functional, cell-based; settings: Homo sapiens;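 further: growth inhibition of human SK-MEL-28 cells, read out with a cell viability assay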
Description: SANGER: Inhibition of human SK-MEL-28 cell growth in a cell viability assay.

[46] = tested on: HEC-1; type: functional, cell-based, Homo sapiens; settings: Homo sapiens, HEC-1;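 further: growth inhibition of the cell line, read out with a cell viability assay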
Description: SANGER: Inhibition of human HEC-1 cell growth in a cell viability assay.

[47] = tested on: Lu-65; type: functional, cell-based; settings: Homo sapiens;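 further: growth inhibition of Lu-65 cancer cells, read out by a cell viability assay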
Description: SANGER: Inhibition of human LU-65 cell growth in a cell viability assay.

[48] = tested on: NCI-H2126; type: functional, cell-based, Homo sapiens; settings: Homo sapiens, NCI-H2126;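 further: growth inhibition of the cancer cell line, determined with a cell viability readout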
Description: SANGER: Inhibition of human NCI-H2126 cell growth in a cell viability assay.

[49] = tested on: BT-20; type: functional, cell-based, Homo sapiens; settings: Homo sapiens, BT-20;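 further: cell viability assay measuring suppression of growth in human BT-20 cells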
Description: SANGER: Inhibition of human BT-20 cell growth in a cell viability assay.

[50] = tested on: HT1197; type: functional, cell-based, Homo sapiens, HT-1197; settings: Homo sapiens, HT1197
Description: SANGER: Inhibition of human HT-1197 cell growth in a cell viability assay.

[51] = tested on: Becker; type: functional, cell-based, Homo sapiens; settings: Homo sapiens, Becker;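 further: growth inhibition of Becker cells, read out with a cell viability assay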
Description: SANGER: Inhibition of human Becker cell growth in a cell viability assay.

[52] = tested on: 5637; type: functional, cell-based, Homo sapiens; settings: Homo sapiens
Description: SANGER: Inhibition of human 5637 cell growth in a cell viability assay.

SMILES: CCC1=C[C@@H]2CN(C1)Cc1c([nH]c3ccccc13)[C@@](C(=O)OC)(c1cc3c(cc1OC)N(C)[C@H]1[C@@](O)(C(=O)OC)[C@H](OC(C)=O)[C@]4(CC)C=CCN5CC[C@]31[C@@H]54)C2 [VINORELBINE]
- IC50 [1]: 3.71 nM
- IC50 [2]: 12.8 nM
- IC50 [3]: 19.1 nM
- IC50 [4]: 8.99 nM
- IC50 [5]: > 64 nM
- IC50 [6]: 19.8 nM
- IC50 [7]: > 64 nM
- IC50 [8]: 2.59 nM
- IC50 [9]: > 64 nM
- IC50 [10]: 5.01 nM
- IC50 [11]: 13.9 nM
- IC50 [12]: 8.22 nM
- IC50 [13]: 21.6 nM
- IC50 [14]: 3.9 nM
- IC50 [15]: 7.87 nM
- IC50 [16]: 37.7 nM
- IC50 [17]: 2.11 nM
- IC50 [18]: 17.8 nM
- IC50 [19]: 6.92 nM
- IC50 [20]: 3.73 nM
- IC50 [21]: 5.01 nM
- IC50 [22]: 45.5 nM
- IC50 [23]: > 64 nM
- IC50 [24]: 8.67 nM
- IC50 [25]: 45.8 nM
- IC50 [26]: 53.5 nM
- IC50 [27]: 2.94 nM
- IC50 [28]: 19.8 nM
- IC50 [29]: 34.3 nM
- IC50 [30]: > 64 nM
- IC50 [31]: 5.01 nM
- IC50 [32]: 3.9 nM
- IC50 [33]: 27.8 nM
- IC50 [34]: 23.9 nM
- IC50 [35]: > 64 nM
- IC50 [36]: 50.8 nM
- IC50 [37]: 24.2 nM
- IC50 [38]: > 64 nM
- IC50 [39]: 46.8 nM
- IC50 [40]: 9.95 nM
- IC50 [41]: > 64 nM
- IC50 [42]: > 64 nM
- IC50 [43]: 2.71 nM
- IC50 [44]: 3.36 nM
- IC50 [45]: > 64 nM
- IC50 [46]: 22.7 nM
- IC50 [47]: 24.5 nM
- IC50 [48]: 29.3 nM
- IC50 [49]: 12.4 nM
- IC50 [50]: > 64 nM
- IC50 [51]: 5.39 nM
- IC50 [52]: 7.55 nM
